One experiment concerns responder T cells. As to the kind of experiment: Suppressive activity of stimulated CD4+ cells on proliferation of CFSE-labeled responder T cells. Type of experiment: cell-based, human. The conditions noted are these: FIG. 4; cells stimulated with vs without azacytidine; ratio 1:10 to responder cells, soluble anti-CD3, 3 days. The method, then: Each population of stimulated cells was assayed for suppressive activity by culturing the cells with responder T cells labeled with carbofluorescein diacetate succinimydil ester (CFSE) at a ratio of 1:10. The cells were stimulated with soluble anti-CD3 for 3 days and proliferation of the responder cells was measured by dilution of CFSE.
The induced Tregs were added to T respond cells (1:4 ratio) and suppressive activity was calculated.

Another experiment concerns CD4+ cells. Put plainly: Proliferation of cultured CD4+ cells upon re-stimulation. Type of experiment: cell-based, human. The conditions noted are these: after 6 days of culture. The source says: A further phenotypic property of nTregs is poor proliferative responsiveness, which is often accompanied by lowered production of certain pro-proliferation cytokines, such as IL-2. Other cytokines, such as IL-4, IFNγ and TFN-α are also associated with proliferation, although they are generally produced in low levels even in proliferating cells. Proliferation response can be measured using methods known in the art, such as thymidine uptake assays and assays of carboxyfluorescein succinimidyl ester (CFSE) dilution.
As discussed above, one phenotypic property of nTregs is poor proliferative responsiveness. Human naïve CD4+ cells stimulated with IL-2 and TGF-β become FOXP3+, but are only partially differentiated suppressor cells. […] Since the only source of pro-proliferative cytokines are the iTregs themselves, the lack of proliferation by azacytidine-treated cells is consistent with poor cytokine production, which is a distinguishing characteristic of nTregs.

The test system of experiment [1] is naïve CD4+ cells. As to the kind of experiment: FOXP3 expression by flow cytometry in naïve CD4+ cells stimulated with anti-CD3/CD28 beads. Format: cell-based, human. From the text: FIG. 1 is a typical example of FOXP3 expression at day 6 of cultures of non-regulatory T cells. In the experiments represented in this figure, naïve CD4+ cells were stimulated with 3/28 beads (1 bead per 10 T cells) with (right panel) or without (left panel) TGF-β for 6 days.
This inhibitor blocks TGF-β type I receptor signaling. The figures in FIG. 2A provide data from flow cytometry analysis of stimulated CD4+ cells. Naïve CD4+ cells were stimulated with anti-CD3/CD28 beads for 5 or 6 days in medium only (left-most panel), in the presence of 5 ng/ml TGF-β (middle panel) or with 1 μM azacytidine (right-most panel). The graphs also show data from cells stimulated with and without ALK5i (10 μM).
FIG. 3A provides flow cytometry data from naïve CD4 cells stimulated with anti-CD3/CD28 beads for 5 or 6 days in (in order of the panels from left to right) medium alone, in medium containing TGF-β, in medium containing azacytidine, and in medium containing azacytidine and TGF-β. The arrows indicate the […] after stimulation with anti-CD3/anti-CD28.
Naïve CD4+ cells were stimulated with anti-CD3/28 beads as described above. […] FOXP3 expression among CD4+CD25+ cells was determined by flow cytometry. FIG. 5A is a bar graph showing the indicated mean±SEM for 5 independent experiments. FIG. 5B is representative of experiments in 0.1 μM ATRA.
The traces identified with arrows indicate data from cells expressing FOXP3 after stimulation, and percentage of FOXP3 expressing cells is indicated in each figure.
Background: A flow cytometer gives signals particle by particle.

For experiment [2], the system named is memory CD4+ cells (CD45RO+). Put plainly: Stimulation of memory CD4+ cells (CD45RO+) with or without azacytidine (Example 7). Format: cell-based. The method, then:
In addition to naïve CD4+ cells (also referred to as CD45RA+ cells), memory CD4+ cells (CD45RO+) are stimulated and assessed for the effect of azacytidine and azacytidine+retinoic acid on their phenotypic properties. These memory CD4+ cells represent a resting but previously activated population. The cells are stimulated with anti-CD3/anti-CD28 beads (at 1 in 10) with or without azacytidine (1 μM), azacytidine combined with all-trans retinoic acid and also with or without TGF-β (5 ng/ml). After 6 days, the cells are depleted of stimulating beads and assayed for FOXP3 expression, suppressor activity and proliferative activity. Greater than 50% of the stimulated cells express FOXP3. Enhanced FOXP3 expression in cells cultured in medium alone may be due to TGF-β provided by non-T cells in the culture.
Remaining cells are restimulated with anti-CD3/anti-CD28 (at 1 in 10) with or without fresh azacytidine and/or azacytidine plus retinoic acid, such that there is a group from each CD4+ subset that is exposed to azacytidine/azacytidine+retinoic acid for the first time. After a further 6 days, the cells are assayed again for FOXP3 expression, suppressor activity and proliferative activity.

For experiment [3], the system named is naïve CD4+ cells. Put plainly: Surface marker phenotype (CD45RO, CD103, CD127) of stimulated naïve CD4+ cells. Format: cell-based, human. The conditions noted are these: FIG. 7; after 6 days of stimulation.
From the text: Naïve T cells display the CD45RA+ marker and lack CD45RO. […] Finally, nTregs characteristically express the αEβ7 integrin (CD103) induced by TGF-β.
Experiment [4] concerns naïve CD4+ cells. As to the kind of experiment: Membrane-bound TGF-β staining after re-stimulation of naïve CD4+ cells. The conditions noted are these: FIG. 8; 6 days with agents, re-stimulated with anti-CD3/28 beads. Format: cell-based, human. From the text:
Naïve CD4+ cells were stimulated with agents indicated for 6 days and re-stimulated with anti-CD3/28 beads and stained with fluorochrome-conjugated anti-TGF-β for membrane-bound TGF-β.

Another experiment relates to CD4+GFP-cells. As to the kind of experiment: FOXP3 induction in CD4+GFP- cells of GFP-FOXP3 mice (Example 10). Format: cell-based. Conditions: CD4+GFP- cells sorted from GFP-FOXP3 mice. The method, then:
This assessment utilizes mice engineered to express a GFP-FOXP3 fusion protein. CD4+GFP-cells isolated by cell sorting are stimulated in the presence or absence of regulatory compositions containing azacytidine and regulatory compositions containing azacytidine and retinoic acid. Stimulation is also tested with such regulatory compositions with and without TGF-β. […] Purified populations of FOXP3+ cells are isolated by cell sorting. As a positive control, nTregs are also sorted from fresh spleens and lymph nodes. Both iTregs and nTregs cells (5×10^6) are injected into congenic CD45.1-mice. For the azacytidine-generated iTreg there are enough cells to have three to four mice per group. There are at least two mice per group for the nTregs. In some experiments, nTregs are expanded in culture to obtain sufficient numbers of cells.

Where [5] appears, read: azacytidine 1 μM, after repeated stimulation.

We go through three compounds from patent US20090257988A1, “METHODS AND COMPOSITIONS FOR ACCELERATING THE GENERATION OF REGULATORY T CELLS EX VIVO” (USC Stevens, Hughes Center, priority 2008, published 2009).

“Also recorded” adds a separate entry of the source.

On to “2′-Deoxy-5-azacytidine; 5-Aza-2′-deoxycytidine”, for which the suppressive activity entry in the experiment on responder T cells was “significantly more suppressive; also recorded: develop suppressive activity”. Also, the proliferation upon re-stimulation result in the experiment with CD4+ cells was “fail to proliferate upon re-stimulation”. Also, in the experiment on naïve CD4+ cells [1] (FIG. 2A, anti-CD3/CD28 beads 5 or 6 days, 1 μM azacytidine, no exogenous TGF-β, vs medium only), the “FOXP3 expression (percentage of FOXP3 positive cells)” value is reported as “enhances FOXP3 expression to a similar extent as the enhancement seen with TGF-β; also recorded: markedly augments the percentage of FOXP3 positive cells”. In experiment [2] (setting [5]), the “FOXP3 expression vs total T cells stimulated without azacytidine” value is recorded as “markedly greater” and the “suppressive activity vs total T cells stimulated without azacytidine” value is “markedly greater”.

`CC1=C(/C=C/C(C)=C/C=C/C(C)=C/C(=O)O)C(C)(C)CCC1` [retinoic acid, all-trans retinoic acid]: the “FOXP3 expression in stimulated CD4+ cells” value in the experiment with naïve CD4+ cells [1] (FIG. 5, retinoic acid added to TGF-β and azacytidine, ATRA 0.1-0.5 μM, 4 days, CD4+CD25+ cells) is on record as “enhances FOXP3 expression”.

With TGF-β, the “cells that acquired the CD45RO marker” value in the experiment with naïve CD4+ cells [3] was found to be 50%. Further, in the experiment with naïve CD4+ cells [4], the “expression of membrane-bound TGF-β” value is recorded as “some T cells primed with TGF-β now expressed this cytokine on their cell surface; also recorded: some T cells contacted with TGF-β prior to stimulation now expressed this cytokine on their cell surface”. For the same compound, the FOXP3 expression result in the experiment with CD4+GFP-cells is “induces FOXP3 expression”. Besides, in the experiment on naïve CD4+ cells [1] (FIG. 1, 3/28 beads (1 bead per 10 T cells), 6 days, with vs without TGF-β), the “cells which express FOXP3” value was “twice as many cells which express FOXP3”. Besides, the “proliferation of stimulated cells” value in experiment [2] (TGF-β 5 ng/ml, 6 days) is “hyperproliferative and expand markedly”.
